Where “and” joins values, the source holds several entries; their conditions need not be identical. Identical values can stand only once. Toxic doses and inconclusive results are not listed. The calls were made as follows: active = survival T/C of 150% or more; inactive = T/C below 125% in these data.
System: CD2F1 mice, L1210 leukemia ip, survival T/C
Assay: NCI In Vivo Anticancer Drug Screen. Data for tumor model L1210 Leukemia (intraperitoneal) in CD2F1 (CDF1) mice
Conditions: endpoint: mean survival time, higher = longer survival
Summary of the method: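 Read-out first: treated-group measurement over vehicle-control measurement, expressed as a ratio. Animals bore a transplanted tumor line and were dosed with compound or vehicle.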

[1] = dose: 100.0 mg/kg/injection, schedule: Q04DX003 (ip), vehicle: saline with Tween-80
[2] = dose: 200.0 mg/kg/injection, schedule: Q04DX003 (ip), vehicle: saline with Tween-80
[3] = dose: 400.0 mg/kg/injection, schedule: Q04DX003 (ip), vehicle: saline with Tween-80
[4] = dose: 100.0 mg/kg/injection, schedule: Q01DX009 (ip), vehicle: saline
[5] = dose: 200.0 mg/kg/injection, schedule: Q01DX009 (ip), vehicle: saline
[6] = dose: 100.0 mg/kg/injection, schedule: Q01DX001 (ip), vehicle: saline
[7] = dose: 200.0 mg/kg/injection, schedule: Q01DX001 (ip), vehicle: saline
[8] = dose: 400.0 mg/kg/injection, schedule: Q01DX001 (ip), vehicle: saline
[9] = dose: 100.0 mg/kg/injection, schedule: Q01DX001 (ip), vehicle: saline with Tween-80
[10] = dose: 100.0 mg/kg/injection, schedule: Q01DX009 (ip), vehicle: saline with Tween-80
[11] = dose: 200.0 mg/kg/injection, schedule: Q01DX001 (ip), vehicle: saline with Tween-80
[12] = dose: 200.0 mg/kg/injection, schedule: Q01DX009 (ip), vehicle: saline with Tween-80
[13] = dose: 400.0 mg/kg/injection, schedule: Q01DX001 (ip), vehicle: saline with Tween-80
[14] = dose: 100.0 mg/kg/injection, schedule: Q04DX003 (ip), vehicle: saline
[15] = dose: 200.0 mg/kg/injection, schedule: Q04DX003 (ip), vehicle: saline
[16] = dose: 100.0 mg/kg/injection, schedule: Q04DX002 (ip), vehicle: saline with Tween-80
[17] = dose: 200.0 mg/kg/injection, schedule: Q04DX002 (ip), vehicle: saline with Tween-80

Measured: T/C

CC1c2ccccc2CC2(C)CN12 (stereo unspecified)
inactive: dose: 75.0 mg/kg/injection, schedule: Q01DX001 (ip), vehicle: saline 103 % of control | dose: 150.0 mg/kg/injection, schedule: Q01DX001 (ip), vehicle: saline 101 % of control | dose: 300.0 mg/kg/injection, schedule: Q01DX001 (ip), vehicle: saline 97 % of control

CON(C)N=Nc1ccc(C(N)=O)cc1
inactive: dose: 4.68 mg/kg/injection, schedule: Q01DX009 (ip), vehicle: Klucel (hydroxypropylcellulose) (HPC) 96 % of control and 110 % of control | dose: 9.37 mg/kg/injection, schedule: Q01DX009 (ip), vehicle: Klucel (hydroxypropylcellulose) (HPC) 87 % of control and 109 % of control | dose: 18.75 mg/kg/injection, schedule: Q01DX009 (ip), vehicle: Klucel (hydroxypropylcellulose) (HPC) 96 % of control and 101 % of control | dose: 37.5 mg/kg/injection, schedule: Q01DX009 (ip), vehicle: Klucel (hydroxypropylcellulose) (HPC) 98 % of control and 104 % of control | dose: 75.0 mg/kg/injection, schedule: Q01DX009 (ip), vehicle: Klucel (hydroxypropylcellulose) (HPC) 100 % of control and 103 % of control | dose: 150.0 mg/kg/injection, schedule: Q01DX009 (ip), vehicle: Klucel (hydroxypropylcellulose) (HPC) 114 % of control and 103 % of control | dose: 300.0 mg/kg/injection, schedule: Q01DX009 (ip), vehicle: Klucel (hydroxypropylcellulose) (HPC) 114 % of control

CCOC(=O)c1c2cccccc-2c(C(=O)OCC)c1N
inactive: [1] 95 % of control | [2] 109 % of control | [3] 92 % of control

O=C(O)Cc1cccnc1
inactive: [4] 98 % of control | [5] 102 % of control | dose: 400.0 mg/kg/injection, schedule: Q01DX009 (ip), vehicle: saline 110 % of control

Nc1nc2c(c(=O)[nH]1)N(C(=S)Nc1ccccc1)C(CNc1ccc(C(=O)NC(CCC(=O)O)C(=O)O)cc1)CN2 (stereo unspecified)
inactive: [6] 101 % of control | [7] 101 % of control | [8] 104 % of control

CC(=O)Nc1cc(N(CCOS(C)(=O)=O)CCOS(C)(=O)=O)ccc1N=O
inactive: dose: 0.25 mg/kg/injection, schedule: Q01DX009 (ip), vehicle: saline 117 % of control | dose: 0.5 mg/kg/injection, schedule: Q01DX009 (ip), vehicle: saline 116 % of control | dose: 1.0 mg/kg/injection, schedule: Q01DX009 (ip), vehicle: saline 95 % of control | dose: 1.5 mg/kg/injection, schedule: Q04DX003 (ip), vehicle: saline 120 % of control | dose: 2.0 mg/kg/injection, schedule: Q01DX009 (ip), vehicle: saline 95 % of control | dose: 3.0 mg/kg/injection, schedule: Q04DX003 (ip), vehicle: saline 115 % of control | dose: 6.0 mg/kg/injection, schedule: Q04DX003 (ip), vehicle: saline 107 % of control

O=C(O)c1cccc2[nH][nH]c(=O)c12
inactive: [9] 100 % of control | [10] 101 % of control | [11] 102 % of control | [12] 100 % of control | [13] 100 % of control | dose: 400.0 mg/kg/injection, schedule: Q01DX009 (ip), vehicle: saline with Tween-80 98 % of control

O=C(COc1ccc(Cl)cc1C(=O)O)NCc1ccc(NC(=O)Nc2ccc(S(=O)(=O)F)cc2)cc1
inactive: [9] 96 % of control | [11] 91 % of control | [13] 91 % of control

C=C(C)C1CCC2(C(=O)O)CCC3(C)C(CCC4C5(C)CCC(OC(C)=O)C(C)(C)C5CCC43C)C12 (stereo unspecified)
inactive: dose: 100.0 mg/kg/injection, schedule: Q01DX001 (ip), vehicle: Klucel (hydroxypropylcellulose) (HPC) 93 % of control | dose: 200.0 mg/kg/injection, schedule: Q01DX001 (ip), vehicle: Klucel (hydroxypropylcellulose) (HPC) 93 % of control | dose: 400.0 mg/kg/injection, schedule: Q01DX001 (ip), vehicle: Klucel (hydroxypropylcellulose) (HPC) 91 % of control

NCc1ncn[nH]1
inactive: [14] 100 % of control | [15] 96 % of control

CCC(O)(CC)c1ccc2ncccc2c1
inactive: dose: 75.0 mg/kg/injection, schedule: Q04DX003 (ip), vehicle: saline 98 % of control | dose: 150.0 mg/kg/injection, schedule: Q04DX003 (ip), vehicle: saline 97 % of control | dose: 300.0 mg/kg/injection, schedule: Q04DX003 (ip), vehicle: saline 98 % of control

CCCCC/C=C\C/C=C\CCCCCCCC(=O)OCC1CNP(=O)(N(CCCl)CCCl)O1 (stereo unspecified)
inactive: dose: 6.25 mg/kg/injection, schedule: Q01DX009 (ip), vehicle: water 103 % of control | dose: 12.5 mg/kg/injection, schedule: Q01DX009 (ip), vehicle: water 95 % of control | dose: 23.3 mg/kg/injection, schedule: Q01DX001 (ip), vehicle: DMSO 101 % of control | dose: 25.0 mg/kg/injection, schedule: Q01DX009 (ip), vehicle: water 95 % of control | dose: 38.9 mg/kg/injection, schedule: Q01DX001 (ip), vehicle: DMSO 98 % of control | dose: 50.0 mg/kg/injection, schedule: Q01DX009 (ip), vehicle: water 97 % of control | dose: 64.8 mg/kg/injection, schedule: Q01DX001 (ip), vehicle: DMSO 98 % of control | dose: 100.0 mg/kg/injection, schedule: Q01DX009 (ip), vehicle: water 103 % of control | dose: 108.0 mg/kg/injection, schedule: Q01DX001 (ip), vehicle: DMSO 97 % of control | dose: 180.0 mg/kg/injection, schedule: Q01DX001 (ip), vehicle: DMSO 98 % of control | dose: 200.0 mg/kg/injection, schedule: Q01DX009 (ip), vehicle: water 103 % of control | dose: 300.0 mg/kg/injection, schedule: Q01DX001 (ip), vehicle: DMSO 97 % of control

O=S1CC2(C1)CS(=O)C2 (stereo unspecified)
inactive: [6] 103 % of control | [7] 103 % of control | [8] 100 % of control

N#CN1CCOCC1
inactive: [4] 101 % of control | [14] 91 % of control | [5] 110 % of control | [15] 96 % of control

CC1=CC(=O)OC1CC(=O)O (stereo unspecified)
inactive: dose: 50.0 mg/kg/injection, schedule: Q01DX009 (ip), vehicle: saline 97 % of control | [4] 97 % of control | [5] 103 % of control

O=Cc1c[nH]c2ncccc12
inactive: [1] 98 % of control | [2] 94 % of control | [3] 98 % of control

COc1cc(OC)c(C(=O)c2ccccc2N)c(OC)c1
inactive: dose: 50.0 mg/kg/injection, schedule: Q01DX009 (ip), vehicle: saline with Tween-80 98 % of control | [10] 101 % of control | [12] 98 % of control

O=C(O)c1cc(Cl)c(Cl)cn1
inactive: dose: 50.0 mg/kg/injection, schedule: Q01DX001 (ip), vehicle: saline with Tween-80 97 % of control | [9] 98 % of control | [11] 103 % of control

CC(C)CCCC(C)C1CCC2C3CC4OC45CC(O)CCC5(C)C3CCC12C (stereo unspecified)
inactive: [1] 96 % of control | [2] 90 % of control | [3] 96 % of control

CCCC(C)(C)OC(=O)c1ccc([N+](=O)[O-])cc1
inactive: [6] 96 % of control | [7] 98 % of control | [8] 100 % of control

O=C(CCCC(=O)c1ccccc1)OC1(c2ccccc2)CCCC(=O)O1 (stereo unspecified)
inactive: dose: 50.0 mg/kg/injection, schedule: Q04DX002 (ip), vehicle: saline with Tween-80 98 % of control | [16] 98 % of control | [17] 94 % of control

CC(=O)SC(c1ccccc1)(c1ccccc1)c1ccccc1
inactive: [1] 95 % of control and 103 % of control | [2] 91 % of control and 97 % of control | [3] 90 % of control and 100 % of control

NC(=S)N/N=C/c1ccc(OC(=O)COc2cc(Cl)c(Cl)cc2Cl)cn1
inactive: [16] 122 % of control | [17] 114 % of control | dose: 400.0 mg/kg/injection, schedule: Q04DX002 (ip), vehicle: saline with Tween-80 122 % of control

CN(C)C(=O)c1cccc(COc2ccc(N3C(N)=NC(N)=NC3(C)C)cc2Cl)c1
inactive: dose: 0.2 mg/kg/injection, schedule: Q01DX009 (ip), vehicle: saline 100 % of control | dose: 0.4 mg/kg/injection, schedule: Q01DX009 (ip), vehicle: saline 98 % of control | dose: 1.56 mg/kg/injection, schedule: Q01DX009 (ip), vehicle: saline 98 % of control | dose: 3.13 mg/kg/injection, schedule: Q01DX009 (ip), vehicle: saline 100 % of control | dose: 6.25 mg/kg/injection, schedule: Q01DX009 (ip), vehicle: saline 98 % of control | dose: 12.5 mg/kg/injection, schedule: Q01DX009 (ip), vehicle: saline 98 % of control | dose: 65.0 mg/kg/injection, schedule: Q01DX009 (ip), vehicle: saline 97 % of control

Source: PubChem BioAssay AID256 (DTP/NCI, 2004)
